Measured values taken from the supplement of paper PMC7394473.

Legend:
Details in all cases: 72 h
[1] = test system: U2OS; experiment: FV IC50 (concentration giving fractional viability 0.5); higher = less potent killing
Protocol: (§1)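 U2OS cells treated with full dose titrations of drug; live and dead cells counted by STACK microscopy (mKate2 nuclei, SYTOX Green) at 72 h, biological triplicates. GR and FV dose responses were fitted with 4-parameter logistic models (GR lower bound -1). GRADE (0-100) is the rescaled angle of a linear fit of FV versus GR at doses with GR >= 0, giving the percentage of the response due to cell death.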

[2] = test system: U2OS; experiment: drug GRADE (percent of response due to cell death) (% (0-100)); higher = more death-driven response
Protocol: as §1

[3] = test system: U2OS; experiment: normalized growth rate inhibition value (GR) relative to untreated cells (GR value (dimensionless, 1 = untreated growth)); higher = less growth inhibition
Protocol: (§2)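 U2OS::Nuc-mKate2 cells seeded in 96-well plates and treated with eight- to ten-point half-log or log dilutions of drug in the presence of 50 nM SYTOX Green. Live (mKate2+) and dead (SYTOX+) cells were counted by IncuCyte STACK live-cell microscopy at 72 h; biological triplicates. GR is the normalised growth-rate inhibition value (Hafner 2016; 1 = untreated growth, <0 = population shrinking). FV is live/(live+dead) cells, not normalised.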

[4] = test system: U2OS; experiment: fractional viability (live cells / total cells); higher = less cell death
Protocol: as §2

[5] = test system: U2OS; experiment: GR50 (concentration giving GR = 0.5)
Protocol: as §1

[6] = test system: U2OS; experiment: GRmin (fitted minimal GR value at highest effect) (GR value (dimensionless)); higher = less efficacious
Protocol: as §1

Row | Structure (SMILES) | FV IC50 [1] | drug GRADE [2] | normalized growth rate inhibition value ([3]; 0.01 µM) | normalized growth rate inhibition value ([3]; 0.0316 µM) | normalized growth rate inhibition value ([3]; 0.1 µM) | normalized growth rate inhibition value ([3]; 0.316 µM) | normalized growth rate inhibition value ([3]; 1 µM) | normalized growth rate inhibition value ([3]; 3.16 µM) | normalized growth rate inhibition value ([3]; 10 µM) | normalized growth rate inhibition value ([3]; 31.6 µM) | fractional viability ([4]; 0.01 µM) | fractional viability ([4]; 0.0316 µM) | fractional viability ([4]; 0.1 µM) | fractional viability ([4]; 0.316 µM) | fractional viability ([4]; 1 µM) | fractional viability ([4]; 3.16 µM) | fractional viability ([4]; 10 µM) | fractional viability ([4]; 31.6 µM) | GR50 [5] | GRmin [6] | normalized growth rate inhibition value ([3]; 0.00100578 µM) | normalized growth rate inhibition value ([3]; 0.00317827 µM) | normalized growth rate inhibition value ([3]; 0.0100433 µM) | normalized growth rate inhibition value ([3]; 0.0317369 µM) | normalized growth rate inhibition value ([3]; 0.100289 µM) | normalized growth rate inhibition value ([3]; 0.316912 µM) | normalized growth rate inhibition value ([3]; 1.00144 µM) | normalized growth rate inhibition value ([3]; 3.16456 µM) | fractional viability ([4]; 0.00100578 µM) | fractional viability ([4]; 0.00317827 µM) | fractional viability ([4]; 0.0100433 µM) | fractional viability ([4]; 0.0317369 µM) | fractional viability ([4]; 0.100289 µM) | fractional viability ([4]; 0.316912 µM) | fractional viability ([4]; 1.00144 µM) | fractional viability ([4]; 3.16456 µM)
1 | Cc1cn(-c2cc(NC(=O)c3ccc(C)c(Nc4nccc(-c5cccnc5)n4)c3)cc(C(F)(F)F)c2)cn1 [Nilotinib] | 10.3 µM | 27.4 | 1.07 | 1.11 | 0.977 | 0.928 | 0.955 | 0.585 | -0.184 | -0.875 | 0.984 | 0.986 | 0.98 | 0.98 | 0.972 | 0.92 | 0.53 | 0.00617 | 3.89 µM | – | – | – | – | – | – | – | – | – | – | – | – | – | – | – | – | –
2 | Cc1cc2c(C(=O)NC[C@H](C)c3ccccc3)c(O)c(O)cc2c(O)c1-c1c(C)cc2c(C(=O)NC[C@H](C)c3ccccc3)c(O)c(O)cc2c1O [Sabutoclax] | – | 27.4 | 0.995 | 0.971 | 1.12 | 0.844 | 0.77 | 0.533 | 0.175 | -0.0541 | 0.979 | 0.983 | 0.982 | 0.975 | 0.982 | 0.936 | 0.878 | 0.681 | 3.32 µM | -0.234 | – | – | – | – | – | – | – | – | – | – | – | – | – | – | – | –
3 | CC[C@@H](C(=O)[C@@H](C)[C@@H](O)[C@H](C)[C@@H]1O[C@@H]([C@@H](CC)C(=O)O)CC[C@@H]1C)[C@H]1O[C@]2(C=C[C@@H](O)[C@]3(CC[C@@](C)([C@H]4CC[C@](O)(CC)[C@H](C)O4)O3)O2)[C@H](C)C[C@@H]1C [Salinomycin] | 17.5 µM | 59.9 | 1.07 | 0.992 | 0.814 | 0.77 | 0.63 | 0.405 | 0.316 | -0.253 | 0.982 | 0.975 | 0.977 | 0.955 | 0.899 | 0.725 | 0.722 | 0.322 | 2.41 µM | – | – | – | – | – | – | – | – | – | – | – | – | – | – | – | – | –
4 | CN1CCN(CCOc2cc(OC3CCOCC3)c3c(Nc4c(Cl)ccc5c4OCO5)ncnc3c2)CC1 [Saracatinib] | – | 28.7 | – | – | – | – | – | – | 0.205 | – | – | – | – | – | – | – | 0.833 | – | 2.59 µM | -0.134 | 1.02 | 1.04 | 1 | 0.977 | 0.978 | 0.823 | 0.608 | 0.528 | 0.989 | 0.989 | 0.987 | 0.986 | 0.98 | 0.965 | 0.929 | 0.915
